What all share (format): cell-based
The subject of one data set is Aeromonas salmonicida. The following applies: 16 h. How it is done: (§1) The antibacterial activity of peptides β-Pte20, β-Pte17, β-Pte13 and β-Pte10 from pteroicidin B and γ-Pte20, γ-Pte17, γ-Pte13 and γ-Pte10 from pteroicidin C was evaluated on several bacteria as presented in Table 3. All peptides were solubilized in sterilized water. The minimum inhibitory concentrations (MICs) were determined according to the liquid growth inhibition test following the protocol established by Hetru and Bulet and used for the study of α-pteroicidins. Briefly, 10 μL of peptide solution were added to 100 μL of bacterial suspension at a starting OD600 of 0.001 (~10^5 to 10^6 CFU/mL according to strain) and incubated in 96-well microplates. Bacterial growth was assessed by optical density measurement at 595 nm after 16 h of incubation. All the tests were performed three times, and each peptide concentration between 0.1 and 50 µM was tested in triplicate. MICs were expressed in µM as an [a]–[b] concentration interval where [a] was the last concentration with bacterial growth and [b] was the first concentration with 100% bacterial growth inhibition. MBCs (minimal bactericidal concentrations) were expressed in µM as an [a]–[b] concentration interval where [a] was the last concentration with bacterial growth and [b] was the first concentration that killed 100% of the bacteria, determined after the plating on agar plates.

The next data set has as its system Escherichia coli. The following applies: 16 h. How it is done: as §1
The subject of a further data set is Vibrio aestuarianus. The note with it: 16 h. How it is done:
as §1

The subject of a further data set is Staphylococcus aureus. The note with it: 16 h. How it is done: as §1
Another data set relates to Vibrio splendidus. The note with it: 16 h. The procedure:
as §1

For a further data set, the system named is Salmonella typhimurium. The note with it: 16 h; for MIC: murium. How it is done:
as §1

A further data set deals with Vibrio vulnificus. The following applies: 16 h. The procedure: as §1
A further data set relates to Listeria monocytogenes. The following applies: 16 h. The procedure:
as §1

A further data set has as its system human red blood cells. The following applies: 200 µM. How it is done: The hemolytic activity of peptides β-Pte20, β-Pte17, β-Pte13 and β-Pte10 from pteroicidin B and γ-Pte20, γ-Pte17, γ-Pte13 and γ-Pte10 from pteroicidin C was evaluated on human red blood cells (RBCs) following the protocol previously described in [96] and used for α-Pte in a previous study. RBCs were obtained from nine blood samples from French blood donors thanks to the support of the Etablissement Français du Sang (EFS). RBCs were rinsed twice in PBS and then diluted to obtain a 1% erythrocyte solution (~5 × 10^6 cells determined using a Scepter™ 2.0 cell counter). Ninety μL of erythrocyte solution were incubated with 90 μL of peptide solution at concentrations ranging from 5 to 200 μM, for one hour at 37 °C without shaking. The percentage of hemolysis was determined by optical density measurement at 415 nm. The experiment was performed in triplicate. The 0% hemolysis and 100% hemolysis controls were determined in PBS and 1% Triton X-100, respectively.

The next data set has as its system Enterococcus faecalis. The note with it: 16 h. How it is done:
as §1

Ends that are not written are not given here.

This is an account of results in article PMC8468504, “Marine Transcriptomics Analysis for the Identification of New Antimicrobial Peptides” (Marine Drugs, 2021).

The sequence FFRHLKSLWK [γ-Pte10] returned an MIC against Aeromonas salmonicida of 25 to 50 µM. Further, in the data set with Escherichia coli, the MBC is 25 to 50 µM and the MIC was in the range of 25 to 50 µM.
Sequence FFRHLKSLWKGAK [γ-Pte13] had a minimal inhibitory concentration (MIC) against Aeromonas salmonicida of 25 to 50 µM. In the data set on Escherichia coli, this sequence came in with a minimum bactericidal concentration (MBC) of 10 to 25 µM and a minimum inhibitory concentration (MIC) of 10 to 25 µM.
For the sequence FFKRLKNAFKSARQAWR [β-Pte17], the minimum bactericidal concentration (MBC) in the data set on Vibrio aestuarianus is 10 to 25 µM; in the data set with Staphylococcus aureus, 25 to 50 µM; against Vibrio splendidus, 10 to 25 µM; with Aeromonas salmonicida, 5 to 10 µM; in the data set with Salmonella typhimurium it was 10 to 25 µM; with Escherichia coli it was 1 to 5 µM. The values for the minimal bactericidal concentration (MBC) against Vibrio vulnificus and against Listeria monocytogenes were 10 to 25 µM and 25 to 50 µM, respectively. The MIC in the data set with Vibrio aestuarianus is 10 to 25 µM; against Staphylococcus aureus it was 10 to 25 µM; with Vibrio splendidus it was 10 to 25 µM; against Aeromonas salmonicida, 5 to 10 µM; against Salmonella typhimurium it was 10 to 25 µM; in the data set on Escherichia coli it was 1 to 5 µM. For the same sequence, the minimal inhibitory concentration (MIC) in the data set with Vibrio vulnificus fell in the range of 10 to 25 µM; against Listeria monocytogenes it was 5 to 10 µM.
Consider FFKRLKNAFKSARQAWRDYK [β-Pte20], for which the MBC was 5 to 10 µM against Vibrio aestuarianus; 10 to 25 µM in the data set on Staphylococcus aureus; 5 to 10 µM against Vibrio splendidus; 1 to 5 µM in the data set with Aeromonas salmonicida; 10 to 25 µM in the data set on Salmonella typhimurium; 5 to 10 µM in the data set on Escherichia coli. For the same sequence, the minimal bactericidal concentration (MBC) with Vibrio vulnificus and against Listeria monocytogenes was 5 to 10 µM each time. Moreover, the minimum inhibitory concentration (MIC) in the data set with Vibrio aestuarianus lay within 1 to 5 µM; in the data set with Staphylococcus aureus, 1 to 5 µM; with Vibrio splendidus, 1 to 5 µM; with Aeromonas salmonicida, 1 to 5 µM; with Salmonella typhimurium, 10 to 25 µM; with Escherichia coli it was 1 to 5 µM. The minimal inhibitory concentration (MIC) against Vibrio vulnificus lay within 5 to 10 µM; with Listeria monocytogenes, 1 to 5 µM.
With FFRHLKSLWKGAKAAFR [γ-Pte17], in the data set with human red blood cells, the hemolysis is reported as 43%. Besides, the MIC lay within 1 to 5 µM in the data set with Enterococcus faecalis; 5 to 10 µM in the data set with Vibrio aestuarianus; 1 to 5 µM in the data set on Staphylococcus aureus; 10 to 25 µM with Vibrio splendidus; 1 to 5 µM with Aeromonas salmonicida; 5 to 10 µM in the data set on Salmonella typhimurium. For the same sequence, the figures for the MIC in the data set on Escherichia coli, against Vibrio vulnificus and against Listeria monocytogenes were 1 to 5 µM, 10 to 25 µM and 1 to 5 µM, respectively. For the same sequence, the MBC was 5 to 10 µM with Vibrio aestuarianus; 1 to 5 µM with Staphylococcus aureus; 10 to 25 µM with Vibrio splendidus; 1 to 5 µM in the data set on Aeromonas salmonicida; 5 to 10 µM in the data set on Salmonella typhimurium; 10 to 25 µM against Escherichia coli. Moreover, the MBC in the data set on Vibrio vulnificus was 10 to 25 µM; against Listeria monocytogenes, 5 to 10 µM.
Sequence FFRHLKSLWKGAKAAFRGAR [γ-Pte20] came in with a hemolysis with human red blood cells of 19%. The MIC in the data set with Enterococcus faecalis was 1 to 5 µM; in the data set on Vibrio aestuarianus, 5 to 10 µM; with Staphylococcus aureus, 1 to 5 µM; against Vibrio splendidus, 5 to 10 µM; in the data set with Aeromonas salmonicida it was 1 to 5 µM; in the data set with Salmonella typhimurium it was 5 to 10 µM. For the same sequence, the MIC lay within 1 to 5 µM against Escherichia coli, 10 to 25 µM with Vibrio vulnificus and 1 to 5 µM against Listeria monocytogenes. In addition, the minimum bactericidal concentration (MBC) in the data set on Vibrio aestuarianus is 10 to 25 µM; against Staphylococcus aureus it was 1 to 5 µM; with Vibrio splendidus, 5 to 10 µM; against Aeromonas salmonicida, 1 to 5 µM; against Salmonella typhimurium, 5 to 10 µM; in the data set with Escherichia coli, 1 to 5 µM. Besides, the minimal bactericidal concentration (MBC) fell in the range of 10 to 25 µM with Vibrio vulnificus and 5 to 10 µM against Listeria monocytogenes.
